From patent US20230372337A1, “Combination Therapy Comprising an AXL Inhibitor” (BERGENBIO ASA, priority 2020, published 2023)
“And” between values parts separate entries of the source, which are not always exact repeats. Identical values can stand only once.

Experiments:
IFN related genes (ISG) = test: qRTPCR of IFN related genes in Yumm1.7 tumors after sacrifice (Example 3); assay type: in vivo, C57Bl6 mice; details: 35 IFN related genes tested
Method: RNA was extracted from snap frozen tumors using the RNEasy Microarray Tissue Mini kit from Qiagen following the manufacturer's instructions. As tumors contained Doxorubicin and powderizing them could expose personnel to harmful substances, the RNA was extracted in a closed system using the GentleMACS dissociator and M Tubes. Purity and concentration of RNA was measured using Nanodrop. cDNA was synthesized from RNA using the RT^2 First Strand kit (Qiagen) according to the manufacturer's instructions. cDNA was mixed with SYBR Green Mastermix (Qiagen) and loaded into PCR plates with different probes against interferon related genes (listed in table 14). The plates were analyzed using Light Cycler 480 (Roche) and data were analyzed using Graph Pad (Prism).
Tumors from 4 animals treated either with Vehicle (group A), bemcentinib (Group B), Doxorubicin (group F) or bemcentinib+Doxorubicin (group H) were analyzed. Data are presented as fold changes compared to Vehicle treated mice. 35 IFN related genes (Table 14) were tested by RT PCR. Fold change was obtained compared to the control group (A). […]
A molecular mechanism focused study will be performed later; here samples were collected after sacrifice, meaning many days after treatment for some of the groups. The expression of 35 ISG as well, immune checkpoint related genes EMT related genes, Axl and Gas6 were analyzed by qRTPCR (Table 14).

Yumm1.7 cells = test: qRTPCR of IFN related genes in Yumm1.7 cells in vitro (Example 4); assay type: cell-based, mouse
global gene expression = test: RNA sequencing of 4T1 tumors 72 hours after doxorubicin i.t. (Example 2); assay type: in vivo, Balb/c mice
Method: FASTQ files were generated and quality controlled by the Genomic Core Facility. The trimmed samples were aligned to the reference genome using STAR. Gene expression quantification was achieved using feature Counts. Following QC, 8 and 7 samples from in vitro and in vivo studies respectively were identified as outliers and were excluded from subsequent analysis. RUVseq was used to remove hidden batch effect and/or other unwanted variations.
Read counts were analyzed for differential expression using the R package DESeq2. DESeq2 uses the raw read counts, applies an internal normalization method, and does estimation of library size, estimation of dispersion, and negative binomial generalized linear model fitting. The resulting differentially expressed gene lists (adjusted p-value cutoff=0.05) were then analyzed using Metascape to find the enriched terms.
RNA sequence analysis (RNAseq) was performed on tumor samples from mice sacrificed 72 hours after doxorubicin i.t. treatment (corresponding to group E and F at the 72 hr timepoint in Example 1).

EMT related genes = test: RT2 Profiler PCR Array Mouse Epithelial to Mesenchymal Transition (EMT) on 4T1 tumors (Example 2); assay type: in vivo, Balb/c mice; details: for Downregulated EMT genes (number): doxorubicin 1 mg/kg i.t., 72 hr timepoint; for EMT related genes significantly downregulated (number): doxorubicin 3 mg/kg i.t., 72 hours
Method: RNA was extracted from […] snap frozen tumors using the RNEasy Microarray Tissue Mini kit from Qiagen following the manufacturer's instructions. As tumors contained Doxorubicin and powderizing them could expose personnel to harmful substances, the RNA was extracted in a closed system using the GentleMACS dissociator and M Tubes. Purity and concentration of RNA was measured using Nanodrop. cDNA was synthesized from RNA using the RT^2 First Strand kit (Qiagen) according to the manufacturer's instructions. cDNA was mixed with RT^2 SYBR Green Mastermix (Qiagen) and loaded into RT Profiler™ PCR Array Mouse Type I Interferon Response or RT^2 Profiler™ PCR Array Mouse Epithelial to Mesenchymal Transition (EMT), analyzing the expression of 84 genes listed in Tables 9 and 10. The plates were analyzed using Light Cycler 480 (Roche) and data were analyzed using the Qiagen Data Analysis Centre and Graph Pad (Prism).
Quiagen RT^2 software was used to analyze all the samples from different groups. To be able to generate heatmaps and graph on fold change including error bars, the data have been analyzed manually with Graph Pad (Prism) when the Quiagen RT^2 software gave significant results between the different groups. For IFN type 1 response 1 mg/kg 48, 72 h and 3 mg/kg 48 h, were analyzed manually. For EMT, 1 mg/kg 48, 72 h, 3 mg/kg 72 h. When the data have been analyzed manually, the results are presented as histograms of mRNA fold changes. For the time points and doses analyzed by the software, the results are presented as tables.
EMT related gene expression in tumors was assessed by the RT^2 Profiler™ PCR Array for the 1 and 3 mg/kg doses at 48 and 72 hr timepoints. The highest dose and 24 hr timepoint samples were excluded based on the results outlined above.

[1] = test system: 4T1 mammary carcinoma cells; test: Metastasis, tumor weight and spleen weight post sacrifice, 4T1 model (Example 1); assay type: in vivo, BALB/c mice; details: for Lung macro metastasis: count per animal (A1-A15) after sacrifice, 10+ = massive lung metastasis; for Average spleen weight / Average tumor weight: post sacrifice, average of each group
Method: Spleens were weighed and inspected for macroscopic metastasis and cut in half along the long axis. Half of the spleen was snap frozen, with the other half fixed in 4% formalin for 24 hours at room temperature and stored in 70% ethanol at 4° C. until embedding in paraffin.
Livers were inspected for macroscopic metastasis and fixed in 4% formalin for 24 hours at room temperature and stored in 70% ethanol at 4° C. until embedding in paraffin.
Lungs were inspected for macroscopic metastasis and fixed in 4% formalin for 24 hours at room temperature and stored in 70% ethanol at 4° C. until embedding in paraffin.
Tumors were weighed and cut in half along the long axis, one half was snap frozen in liquid nitrogen in 2 cryotubes per tumor, while the other half was fixed in 4% formalin for 24 hours at room temperature and stored in 70% ethanol at 4° C. until embedding in paraffin.

[2] = Yumm1.7 cells, doxorubicin 24 hours

Row | SMILES | ISG significantly upregulated compared to control (number) (IFN related genes (ISG)) | IFIT1 mRNA fold change (Yumm1.7 cells; [2]) | OAS2 mRNA fold change (Yumm1.7 cells; [2]) | RSAD2 mRNA fold change (Yumm1.7 cells; [2]) | ISG significantly upregulated compared to control (number) (Yumm1.7 cells; Yumm1.7 cells, doxorubicin 24 hours, 21 ISG tested) | GO terms significantly upregulated compared to control (number) (global gene expression) | Interferon and immune response (gene ontology) compared to bern only group (global gene expression) | Interferon response (gene ontology) compared to control (global gene expression) | Downregulated EMT genes (number) (EMT related genes) | EMT related genes significantly downregulated (number) (EMT related genes) | Lung macro metastasis ([1]; listed as Vehicle + Dox + Igg) | Average spleen weight [1] | Average tumor weight [1] | Effect on the IFNB mediated response (Yumm1.7 cells; Yumm1.7 cells treated with IFNB) | GO terms significantly downregulated compared to control (number) (global gene expression) | Lung macro metastasis ([1]; listed as Bem + PBS + Igg)
1 | COc1cccc2c1C(=O)c1c(O)c3c(c(O)c1C2=O)C[C@@](O)(C(=O)CO)C[C@@H]3O[C@H]1C[C@H](N)[C@H](O)[C@H](C)O1 [Doxorubicin, doxorubicin] | No gene | 20 fold | 50 fold | 20 fold | 9 | 1 | upregulated | No Interferon response | one | none | 10+ (2×) and 6 and 3 and 0 (2×) and 4 (2×) and 5 | 1.16 g | 1.51 g |  |  | 
2 | Nc1nc(Nc2ccc3c(c2)CC[C@@H](N2CCCC2)CC3)nn1-c1cc2c(nn1)-c1ccccc1CCC2 [Bemcentinib, bemcentinib] | 4 |  |  |  |  | 2 |  | downregulated | one | none |  | 0.9333 g | 1.556 g | appeared to increase the IFNB mediated response, although not reaching significance | 20 | 6 and 10+ (2×) and 5 (3×) and 0 and 4 and 2 and 10
